From the RepoRT retention time repository

Test: HILIC, Waters ACQUITY UPLC BEH Amide, 100 × 2.1 mm, 1.7 µm; A: water + 0.125% formic acid + 10 mM ammonium formate; B: 5% water + 95% acetonitrile + 0.125% formic acid + 10 mM ammonium formate; gradient (min/%B) 0/100 2/100 7.7/70 9.5/40 10.25/30 12.75/100 17/100
Conditions: stereoisomer not certain

| Compound | LC retention time |
| --- | --- |
| COc1cc2nc(N3CCN(C(=O)c4ccco4)CC3)nc(N)c2cc1OC [Prazosin] | 3.75 min |
| NC(=O)CCC(NC(=O)C1CCCN1)C(=O)O (centres undefined) [Pro-Gln] | 8.75 min |
| CNNCc1ccc(C(=O)NC(C)C)cc1 [Procarbazine] | 4.61 min |
| CN1CCN(CCCN2c3ccccc3Sc3ccc(Cl)cc32)CC1 [Prochlorperazine] | 2.56 min |
| CC(=O)C1CCC2C3CCC4=CC(=O)CCC4(C)C3CCC12C (centres undefined) [Progesterone] | 0.97 min |
| O=C(O)C1CC(O)CN1C(=O)C1CCCN1 (centres undefined) [Proline-hydroxyproline] | 8.6 min |
| O=C(O)C1CCCN1 (centres undefined) [Proline] | 7.83 min |
| CCC(=O)Nc1ccc(Cl)c(Cl)c1 [Propanil] | 1.08 min |
| CCC(=O)OC(CC(=O)[O-])C[N+](C)(C)C (centres undefined) [Propionylcarnitine] | 6.41 min |
| CCC(=O)OC(Cc1ccccc1)(c1ccccc1)C(C)CN(C)C (centres undefined) [Propoxyphene] | 2.01 min |
| COc1cc(C=Cc2ccc(O)cc2)cc(OC)c1 [Pterostilbene] | 0.98 min |
| c1ncc2[nH]cnc2n1 [Purine] | 2.44 min |
| NCCCCN [Putrescine] | 9.3 min |
| CCOC(=O)COc1cc(-c2nn(C)c(OC(F)F)c2Cl)c(F)cc1Cl [Pyrafluefen-ethyl] | 1.02 min |
| c1ccncc1 [Pyridine] | 6.63 min |
| Cc1ncc(COP(=O)(O)O)c(C=O)c1O [Pyridoxal-5-phosphate] | 7.7 min |
| Cc1ncc(CO)c(C=O)c1O [Pyridoxal] | 2.18 min |
| Cc1ncc(CO)c(CN)c1O [Pyridoxamine] | 8.1 min |
| Cc1ncc(CO)c(CO)c1O [Pyridoxine] | 3.78 min |
| O=C1CCC(C(=O)O)N1 (centres undefined) [Pyroglutamic acid] | 8.71 min |
| O=C(O)c1ccc[nH]1 [Pyrrole-2-carboxylic acid] | 5.66 min |
| CC(=O)OCC1OC(Oc2c(-c3ccc(O)c(O)c3)oc3cc(O)cc(O)c3c2=O)C(O)C(O)C1O (stereo not drawn) [Quercetin-3-O-beta-glucopyranosyl-6'-acetate] | 4.61 min |
| CC1OC(Oc2c(-c3ccc(O)c(O)c3)oc3cc(O)cc(O)c3c2=O)C(O)C(O)C1O (centres undefined) [Quercetin-3-ramnoside] | 4.7 min |

| Compound | LC retention time |
| --- | --- |
| OCCOCCN1CCN(C2=Nc3ccccc3Sc3ccccc32)CC1 [Quetiapine] | 2.54 min |
| O=C(O)c1cccnc1C(=O)O [Quinolinic acid] | 2.16 min |
| COCCCOc1ccnc(CS(=O)c2nc3ccccc3[nH]2)c1C (centres undefined) [Rabeprazole] | 2.44 min |
| CC(=O)SCC(Cc1ccccc1)C(=O)NCC(=O)OCc1ccccc1 (centres undefined) [Racecadotril] | 0.95 min |
| CCN1CCCC1CNC(=O)c1c(O)c(Cl)cc(Cl)c1OC (centres undefined) [Raclopride] | 2.11 min |
| OCC1OC(OCC2OC(OC3(CO)OC(CO)C(O)C3O)C(O)C(O)C2O)C(O)C(O)C1O (centres undefined) [Raffinose] | 9.17 min |
| Cc1nc2ccc(CN(C)c3ccc(C(=O)NC(CCC(=O)O)C(=O)O)s3)cc2c(=O)[nH]1 (centres undefined) [Raltitrexed] | 7.35 min |
| CCOC(=O)C(CCc1ccccc1)NC(C)C(=O)N1C(C(=O)O)CC2CCCC21 (centres undefined) [Ramipril] | 1.4 min |
| CNC(=C[N+](=O)[O-])NCCSCc1ccc(CN(C)C)o1 [Ranitidine] | 5.18 min |
| COc1ccccc1OCC(O)CN1CCN(CC(=O)Nc2c(C)cccc2C)CC1 (centres undefined) [Ranolazine] | 2.79 min |
| CC(Cc1ccccc1)(NC(=O)CN)c1ccccc1 (centres undefined) [Remacemide] | 4.41 min |
| CCOc1cc(CC(=O)NC(CC(C)C)c2ccccc2N2CCCCC2)ccc1C(=O)O (centres undefined) [Repaglinide] | 1.01 min |
| Oc1ccc(C=Cc2cc(O)cc(O)c2)cc1 [Resveratrol] | 1.41 min |
| CC(C=CC1=C(C)CCCC1(C)C)=CC=CC(C)=CC(=O)O [Retinoic acid] | 1.11 min |
| Cc1cc2nc3c(=O)[nH]c(=O)nc-3n(CC(O)C(O)C(O)CO)c2cc1C (centres undefined) [Riboflavin] | 6 min |
| COC1C=COC2(C)Oc3c(C)c(O)c4c(O)c(c5c(c4c3C2=O)=NC2(CCN(CC(C)C)CC2)N=5)NC(=O)C(C)=CC=CC(C)C(O)C(C)C(O)C(C)C(OC(C)=O)C1C (centres undefined) [Rifabutin] | 2.76 min |
| COC1C=COC2(C)Oc3c(C)c(O)c4c(O)c(c(C=NN5CCN(C6CCCC6)CC5)c(O)c4c3C2=O)NC(=O)C(C)=CC=CC(C)C(O)C(C)C(O)C(C)C(OC(C)=O)C1C (centres undefined) [Rifapentine] | 1.81 min |
| COC1C=COC2(C)Oc3c(C)c(O)c4c(O)c(c5c(nc6cc(C)ccn65)c4c3C2=O)NC(=O)C(C)=CC=CC(C)C(O)C(C)C(O)C(C)C(OC(C)=O)C1C (centres undefined) [Rifaximin] | 1.18 min |
| Nc1nc2ccc(OC(F)(F)F)cc2s1 [Riluzole] | 1.03 min |
| CC1CN(CCCn2c3ccccc3c3ccccc32)CC(C)N1 (centres undefined) [Rimcazole] | 2.87 min |
| Cc1nc2n(c(=O)c1CCN1CCC(c3noc4cc(F)ccc34)CC1)CCCC2 [Risperidone] | 3.52 min |
| CC(C)c1nc(CN(C)C(=O)NC(C(=O)NC(Cc2ccccc2)CC(O)C(Cc2ccccc2)NC(=O)OCc2cncs2)C(C)C)cs1 (centres undefined) [Ritonavir] | 1.15 min |
| CN(C)CCc1c[nH]c2ccc(Cn3cncn3)cc12 [Rizatriptan] | 5.11 min |

| Compound | LC retention time |
| --- | --- |
| CS(=O)(=O)c1ccc(C2=C(c3ccccc3)C(=O)OC2)cc1 [Rofecoxib] | 0.97 min |
| COc1ccc(C2CNC(=O)C2)cc1OC1CCCC1 (centres undefined) [Rolipram] | 1.12 min |
| CCCN1CCCCC1C(=O)Nc1c(C)cccc1C (centres undefined) [Ropivacaine] | 2.49 min |
| CN(CCOc1ccc(CC2SC(=O)NC2=O)cc1)c1ccccn1 (centres undefined) [Rosigltazone] | 1.24 min |
| CC(=O)OCC(=O)NCCCOc1cccc(CN2CCCCC2)c1 [Roxane] | 3.01 min |
| CN1CCN(c2c(F)cc3c(=O)c(C(=O)O)cn4c3c2SCC4)CC1 [Rufloxacin] | 4.65 min |
| CC1OC(OCC2OC(Oc3c(-c4ccc(O)c(O)c4)oc4cc(O)cc(O)c4c3=O)C(O)C(O)C2O)C(O)C(O)C1O (centres undefined) [Rutin] | 6.6 min |
| Nc1ncnc2c1ncn2C1OC(CSCCC(N)C(=O)O)C(O)C1O (centres undefined) [S-Adenosyl-homocysteine] | 8.85 min |
| C[S+](CCC(N)C(=O)[O-])CC1OC(n2cnc3c(N)ncnc32)C(O)C1O (centres undefined) [S-Adenosyl-methionine] | 9.7 min |
| CN=C(NC)NCCCC(N)C(=O)O (centres undefined) [SDMA] | 8.49 min |
| OCc1ccccc1OC1OC(CO)C(O)C(O)C1O (centres undefined) [Salicin] | 4.48 min |
| OCc1cc(C(O)CNCCCCCCOCCCCc2ccccc2)ccc1O (centres undefined) [Salmeterol] | 4.75 min |
| CC(C)(C)NC(=O)C1CC2CCCCC2CN1CC(O)C(Cc1ccccc1)NC(=O)C(CC(N)=O)NC(=O)c1ccc2ccccc2n1 (centres undefined) [Saquinavir] | 2.85 min |
| CNCC(=O)O [Sarcosine] | 7.82 min |
| CN1C2CC(OC(=O)C(CO)c3ccccc3)CC1C1OC12 (centres undefined) [Scopolamine] | 3.75 min |
| COc1cc2ccc(=O)oc2cc1O [Scopoletin] | 1.16 min |
| Cc1ncc([N+](=O)[O-])n1CC(C)O (centres undefined) [Secnidazole] | 1.12 min |
| C#CCN(C)C(C)Cc1ccccc1 (centres undefined) [Selegiline] | 1.5 min |
| NC(CO)C(=O)NC(CCC(=O)O)C(=O)O (centres undefined) [Ser-Glu] | 9.65 min |
| NC(CO)C(=O)NC(Cc1ccc(O)cc1)C(=O)O (centres undefined) [Ser-Tyr] | 8.44 min |
| NC(CO)C(=O)O (centres undefined) [Serine] | 8.73 min |
| NCCc1c[nH]c2ccc(O)cc12 [Serotonin] | 1.44 min |
| CNC1CCC(c2ccc(Cl)c(Cl)c2)c2ccccc21 (centres undefined) [Sertraline] | 2.74 min |

| Compound | LC retention time |
| --- | --- |
| CC(C)CC(N(C)C)C1(c2ccc(Cl)cc2)CCC1 (centres undefined) [Sibutramine] | 1.86 min |
| COc1cc(C=CC(=O)O)cc(OC)c1O [Sinapic acid] | 1.41 min |
| O=P(O)(O)OCC(O)C(O)C(O)C(O)CO (centres undefined) [Sorbitol-6-phosphate] | 9.75 min |
| CC(C)NCC(O)c1ccc(NS(C)(=O)=O)cc1 (centres undefined) [Sotalol] | 4.87 min |
| NCCCCNCCCN [Spermidine] | 6.98 min |
| NCCCNCCCCNCCCN [Spermine] | 7.24 min |
| C[N+]1(C)CCCC1C(=O)O (centres undefined) [Stachydrine] | 7.1 min |
| CC12Cc3cn[nH]c3CC1CCC1C2CCC2(C)C1CCC2(C)O (centres undefined) [Stanozolol] | 1.19 min |
| Cc1cn(C2C=CC(CO)O2)c(=O)[nH]c1=O (centres undefined) [Stavudine] | 1.62 min |
| CCCCCCCCCCCCCCCCCC(=O)OC(CC(=O)O)C[N+](C)(C)C [Stearoyl-L-carnitine] | 2.96 min |
| C=Cc1ccccc1 [Styrene] | 8.74 min |
| O=C(O)CCC(=O)O [Succinic acid] | 4.46 min |
| OCC1OC(OC2(CO)OC(CO)C(O)C2O)C(O)C(O)C1O (centres undefined) [Sucrose] | 8.05 min |
| O=C(O)c1cc(N=Nc2ccc(S(=O)(=O)Nc3ccccn3)cc2)ccc1O [Sulfasalazine] | 2.01 min |
| CS(=O)CCCCN=C=S (centres undefined) [Sulforaphane] | 1.14 min |
| CNS(=O)(=O)Cc1ccc2[nH]cc(CCN(C)C)c2c1 [Sumatriptan] | 4.31 min |
| CNCC(O)c1ccc(O)cc1 (centres undefined) [Synephrine] | 5.67 min |
| COc1cc(-c2oc3cc(O)cc(O)c3c(=O)c2OC2OC(CO)C(O)C(O)C2O)cc(OC)c1O (centres undefined) [Syringetin-3-O-glucoside] | 4.32 min |
| COc1cc(C(=O)O)cc(OC)c1O [Syringic acid] | 1.35 min |
| O=S(=O)(O)CCNC(CO)(CO)CO [TES] | 7.7 min |
